Measurements taken from patent US7247756B2, “1,4-disubstituted benzenes as insecticides” (Bayer CropScience AG, priority 2000, dated 2007).
Where “and” joins values, the source holds several entries; their conditions need not be identical. Equal entries are not always repeated.

Tested on: tobacco budworm (Heliothis virescens [Fabricius])
Test: surface-treated diet test against tobacco budworm
Assay type: in vivo
Settings: second instar larvae, five-day exposure
Method: Candidate insecticides are evaluated for activity against the tobacco budworm (Heliothis virescens [Fabricius]) in a surface-treated diet test.
In this test one mL of molten (65–70° C.) wheat germ-based artificial diet is pipetted into each well of a four by six (24 well) multi-well plate (ID#430345-15.5 mm dia.×17.6 mm deep; Corning Costar Corp., One Alewife Center, Cambridge, Mass. 02140). The diet is allowed to cool to ambient temperature before treatment with candidate insecticide.
For a determination of insecticidal activity, solutions of the candidate insecticides are prepared for testing using a Packard 204DT Multiprobe® Robotic System (Packard Instrument Company, 800 Research Parkway, Meriden, Conn. 06450), in which the robot first dilutes a standard 50 millimolar DMSO solution of candidate insecticide with a 1:1 water/acetone solution (V/V) in a ratio of 1:7 stock solution to water/acetone. The robot subsequently pipettes 40 microliters of the so-prepared solution onto the surface of the diet in each of three wells in the 24 multi-well plate. The process is repeated with solutions of seven other candidate insecticides. Once treated, the contents of the multi-well plate are allowed to dry, leaving 0.25 millimoles of candidate insecticide on the surface of the diet, or a concentration of 0.25 millimolar. Appropriate untreated controls containing only DMSO on the diet surface are also included in this test.
For evaluations of the insecticidal activity of a candidate insecticide at varying rates of application, the test is established as described above using sub-multiples of the standard 50 millimolar DMSO solution of candidate insecticide. For example, the standard 50 millimolar solution is diluted by the robot with DMSO to give 5, 0.5, 0.05, 0.005, 0.0005 millimolar, or more dilute solutions of the candidate insecticide. In these evaluations there are six replicates of each rate of application placed on the surface of the diet in the 24 multi-well plate, for a total of four rates of application of candidate insecticide in each plate.
In each well of the test plate is placed one second instar tobacco budworm larvea, each weighing approximately five milligrams. After the larvae are placed in each well, the plate is sealed with clear polyfilm adhesive tape. The tape over each well is perforated to ensure an adequate air supply. The plates are then held in a growth chamber at 25° C. and 60% relative humidity for five days (light 14 hours/day).
After the five-day exposure period insecticidal activity for each rate of application of candidate insecticide is assessed as percent inhibition of insect weight relative to the weight of insects from untreated controls, and percent mortality when compared to the total number of insects infested.

[1] = rate of application 4.6 (negative log of the molar concentration of test compound in the diet)
[2] = rate of application 5.6 (negative log of the molar concentration of test compound in the diet)
[3] = rate of application 6.6 (negative log of the molar concentration of test compound in the diet)
[4] = rate of application 3.6 (negative log of the molar concentration of test compound in the diet)

Molecule: CCN(CC)CCOc1ccc(COCc2ccc(Cl)c3ccccc23)cc1 [Compound 8, (2-(4-(((4-chloronaphthyl)methoxy)methyl)phenoxy)ethyl)diethylamine]
- Percent Growth Inhibition [1]: 11%

Molecule: CCN(CC)CCOc1ccc(CNc2ccc(Cl)c3ccccc23)cc1 [Compound 84, (2-(4-(((4-chloronaphthyl)amino)methyl)phenoxy)ethyl)diethylamine]
- Percent Growth Inhibition [2]: 11%

Molecule: CC1CCCC(C)N1CCOc1ccc(COc2ccc(Cl)c3ccccc23)cc1 (stereo not drawn) [Compound 106, 1-(2-(2,6-dimethylpiperidyl)ethoxy)-4-((4-chloronaphthyloxy)methyl)benzene]
- Percent Growth Inhibition [3]: 35%

Molecule: CCN(CC)CCOc1ccc(COc2ccc(Cl)c3cc(Cl)ccc23)cc1 [Compound 216, (2-(4-((4,6-dichloronaphthyloxy)methyl)phenoxy)ethyl)diethylamine]
- Percent Growth Inhibition [3]: 1%

Molecule: CCN(CC)CCOc1ccc(COc2cccc3c(Cl)c(Cl)ccc23)cc1 [Compound 223, (2-(4-((5,6-dichloronaphthyloxy)methyl)phenoxy)ethyl)diethylamine]
- Percent Growth Inhibition [3]: 63%

Molecule: CCN(CC)CCOc1ccc(CNc2ccc(Cl)c3ccccc23)cc1OC [Compound 263, (2-(4-(((4-chloronaphthyl)amino)methyl)-2-methoxyphenoxy)ethyl)diethylamine]
- Percent Growth Inhibition [2]: 26%

Molecule: CCN(CC)CCOc1ccc(COc2ccc(Cl)c(Cl)c2Cl)cc1 [Compound 308, diethyl(2-(4-((2,3,4-trichlorophenoxy)methyl)phenoxy)ethyl)amine]
- Percent Growth Inhibition [2]: 18%

Molecule: CCN1CCN(c2ccc(COc3cccc4c(Cl)c(Cl)ccc34)cc2)CC1 [Compound 355, 1,2-dichloro-5-{[4-(4-ethylpiperazinyl)phenyl]methoxy}naphthalene]
- Percent Growth Inhibition [4]: 100%
- Percent Mortality [4]: 100%
- Percent Growth Inhibition [1]: 100%
- Percent Mortality [1]: 100%
- Percent Growth Inhibition [2]: 96%
- Percent Mortality [2]: 17%
- Percent Growth Inhibition [3]: −2%

Molecule: amino(2-(4-((5,6-dichloronaphthyloxy)methyl)phenoxy)ethyl)diethyl-1-one [Compound 183]
- Percent Growth Inhibition [3]: 28% and 18%
